Test results taken from patent publication US20110230430A1, “SAPONIN EXTRACT FROM SAPONARIA SPP. AND USES THEREOF” (NATIONAL RESEARCH COUNCIL OF CANADA, priority 2008, published 2011).

Tests used:
PC-3 cells = assay: Dual Sensor: MitoCasp Assay in PC-3 prostate cancer cells; type: cell-based, human
Text: (§1) Techniques to assay enzymatic and signaling processes involved in apoptosis have been developed as standard protocols. One example of an early step in apoptosis, is the release of cytochrome C from mitochondria and the activation of caspase-3. Induction of the caspases (a series of cytosolic proteases) is one of the most consistently observed features of apoptosis. Caspases are a family of proteolytic enzymes that transmit the apoptotic signal using a proteolytic cascade. […] Caspases 3 and 7 are effector caspases, central to the caspase cascade pathways. In particular, caspase-3 plays a central role in the process. When caspases are activated, they cleave target proteins; one of the most important of these is poly-(ADP-ribose) polymerase (PARP), which is a protein located in the nucleus. Therefore, assays detecting release of cytochrome C, detecting caspase-3 activity and detecting PARP degradation are effective determinants of apoptosis. The loss of mitochondrial membrane potential is known to occur during apoptosis. To analyze mitochondrial membrane potential, a cationic dye may be used which accumulates in the mitochondria of healthy cells. Collapse of the mitochondrial membrane potential during apoptosis prevents the dye from accumulating in the mitochondria resulting in a decrease in fluorescent intensity that can be detected with flow cytometry. Dual Sensor: MitoCasp™ (Cell Technology) used herein in the Examples is an assay that measures caspase 3/7 activity and cells with decreased mitochondrial membrane potential. In this assay, caspase 3/7 activity is detected using a cell permeable carboxyfluorescein labeled caspase inhibitor, which binds covalently to active caspases 3 and 7. Cells that contain bound inhibitor are detected by an increase in fluorescence when samples are analyzed by flow cytometry.
PC-3 cells (ATCC #CRL-1435) were derived from a prostate adenocarcinoma (Kaighn et al., 1979). They were maintained in RPMI 1640 medium (Gibco) supplemented with 10% fetal bovine serum (Cansera), 100 U/mL penicillin, and 100 μg/mL streptomycin and 0.25 μg/mL amphotericin B. Cultures were maintained in medium at 37° C. with 5% CO2 and 100% relative humidity.
To harvest adherent cells, the existing medium was removed and cells were dissociated with 0.25% (w/v) trypsin-EDTA·4Na in Hank's Balanced Salt Solution (Gibco). To block the proteolytic action of the trypsin, the cells were resuspended in an excess of media containing fetal bovine serum. Cells were transferred to a 15 mL conical centrifuge tube and pelleted by centrifugation at 500×g for 5 min. Cell pellets were resuspended in media, and an aliquot of the cells were seeded into a new flask.
PC-3 cells were seeded in tissue culture flasks with regular growth medium and maintained under normal conditions. […] Following incubation under normal growth conditions for the specified time, cells were washed once with cold phosphate-buffered saline (PBS) (137 mM NaCl, 2.7 mM KCl, 4.3 mM Na2HPO4.7H2O, 1.4 mM KH2PO4) and harvested as previously described. Assays were carried out according to instructions given in kits. All Flow Cytometry was performed using a Coulter Epics XL (Beckman).
(§2) Following centrifugation at 500×g for 5 min, cell pellets were resuspended in PBS at 3.3×10^6 cells/mL. 300 μL cell suspension was mixed with 10 μL each of 30X Mitochondria Membrane Potential Dye and 30X Caspase 3/7 detection reagent. Following incubation for 60 min under normal growth conditions, cells were washed twice with 1× wash buffer and resuspended in 0.5 mL 1× wash buffer. Samples were analyzed by flow cytometry measuring the fluorescence emissions from 515 nm to 530 nm for caspase detection, and 574 nm to 600 nm for mitochondrial membrane potential detection.

MDA-MB-231 cells = assay: Dual Sensor: MitoCasp Assay in MDA-MB-231 breast cancer cells; type: cell-based, human
Text: as §1, §2
The MDA-MB-231 cell line (ATCC #HTB-26) was derived from the pleural effusion of a patient with a breast adenocarcinoma (Cailleau et al., 1974). The cells were maintained in RPMI 1640 (Gibco) supplemented with 10% fetal bovine serum (Camera), 100 U/mL penicillin, 100 μg/mL streptomycin and 0.25 μg/mL amphotericin B. Cultures were maintained in medium at 37° C. with 5% CO2 and 100% relative humidity. […]

CRL-2522 cells = assay: Dual Sensor: MitoCasp Assay in CRL-2522 normal fibroblast cells; type: cell-based, human
Text: as §1, §2
CRL-2522 cells, acquired from ATCC, (American Type Culture Collection) are normal fibroblast cells that originated from human foreskin. CRL-2522 cells were maintained in RPMI 1640 medium (Gibco) supplemented with 10% fetal bovine serum (Cansera), 100 U/mL penicillin, 100 μg/mL streptomycin and 0.25 μg/mL amphotericin B. Cultures were maintained in medium at 37° C. with 5% CO2 and 100% relative humidity. […]

HT-29 cancer cells = assay: Dual Sensor: MitoCasp Assay in HT-29 colon cancer cells; type: cell-based, human; settings: HT-29 cells, 2.5 μM, 24 hours
Text: as §1, with “To analyze mitochondrial membrane potential, a cationic dye may be used which accumulates in the mitochondria of healthy cells.” left out, “Dual Sensor: MitoCasp™ (Cell Technology) used herein in the Examples is an assay that measures caspase 3/7 activity and cells with decreased mitochondrial membrane potential.” left out
Following PC1448 treatment, adherent and non-adherent cells were harvested and washed with cold PBS. […] Samples were analyzed by flow cytometry measuring the fluorescence emissions from 515 nm to 530 nm for caspase detection, and 574 nm to 600 nm for mitochondrial membrane potential detection. […]
HT-29 cancer cells were treated with 2.5 μM, 5.0 μM and 10 μM of PC1526 or PC1448 for 23 hours, or with 2.5 μM, 5.0 μM and 10 μM PC1422 for 24 hours and assessed using the Dual Sensor: MitoCasp™ Assay. […]

MCF-7 cells = assay: Dual Sensor: MitoCasp Assay in MCF-7 breast cancer cells; type: cell-based, human; settings: 5 and 10 μM, 24 hours
Text: Techniques to assay enzymatic and signaling processes involved in apoptosis have been developed as standard protocols. One example of an early step in apoptosis, is the release of cytochrome C from mitochondria and the activation of caspase-3. Induction of the caspases (a series of cytosolic proteases) is one of the most consistently observed features of apoptosis. Caspases are a family of proteolytic enzymes that transmit the apoptotic signal using a proteolytic cascade. […] Caspases 3 and 7 are effector caspases, central to the caspase cascade pathways. In particular, caspase-3 plays a central role in the process. […] Collapse of the mitochondrial membrane potential during apoptosis prevents the dye from accumulating in the mitochondria resulting in a decrease in fluorescent intensity that can be detected with flow cytometry. […] In this assay, caspase 3/7 activity is detected using a cell permeable carboxyfluorescein labeled caspase inhibitor, which binds covalently to active caspases 3 and 7. Cells that contain bound inhibitor are detected by an increase in fluorescence when samples are analyzed by flow cytometry. […]
MCF-7 cells were treated with 5.0 μM and 10 μM of saponins PC1526, PC1464 and PC1422 for 24 hours and assessed using Dual Sensor: MitoCasp™ Assay.

[1] = Haemolytic properties of selected saponins; settings: saponins purified to more than 75%
Text: The haemolytic properties of the various saponins that have been purified to more than 75% have been examined and are provided in Table 39. Haemolytic properties are not directly related to anti-cancer or apoptosis inducing properties of saponins but may be related to toxicity and utility of the saponins for preparation of injectable formulations. Saponins most suitable for injectable formulation will be less haemolytic. QS21, a purified Quillaja saponaria saponin with known haemolytic activity is used as reference.

[2] = test system: PC-3, MDA-MB-231, WiDr, and HT-29 Cells; assay: Order of apoptosis potency across cancer cell lines; set-up: species or system human; settings: rank based on responses observed in PC-3, MDA-MB-231, WiDr, and HT-29 Cells; 1 = most active
[3] = 5.0 μM saponin, 36 hours (comparison of saponins)
[4] = CRL-2522 cells, 2.5 μM PC1422, 36 hr
[5] = CRL-2522 cells, 5.0 μM PC1422, 36 hr
[6] = CRL-2522 cells, 10.0 μM PC1422, 36 hr
[7] = CRL-2522 cells, 15.0 μM PC1422, 36 hr
[8] = CRL-2522 cells, 2.5 μM PC1380, 32 hr
[9] = CRL-2522 cells, 5.0 μM PC1380, 32 hr
[10] = CRL-2522 cells, 10.0 μM PC1380, 32 hr
[11] = CRL-2522 cells, 15.0 μM PC1380, 32 hr

## Vaccaroside E [PC1422]
PC-3 cells; 2.5 μM PC1422, 36 hr
  Cells with caspase 3/7 activity: 42.2%
  Cells with decreased mitochondrial membrane potential: 23.6%
PC-3 cells; 5.0 μM PC1422, 36 hr
  Cells with caspase 3/7 activity: 49.1%
  Cells with decreased mitochondrial membrane potential: 30.0%
PC-3 cells; 10.0 μM PC1422, 36 hr
  Cells with caspase 3/7 activity: 55.7%
  Cells with decreased mitochondrial membrane potential: 53.7%
PC-3 cells; 15.0 μM PC1422, 36 hr
  Cells with caspase 3/7 activity: 57.1%
  Cells with decreased mitochondrial membrane potential: 53.3%
PC-3 cells; 36 hours
  Concentration of greatest effect on apoptosis: above 10 μM
  Induction of apoptosis at concentrations as low as: 2.5 µM
MDA-MB-231 cells; 2.5 μM PC1422, 36 hr
  Cells with caspase 3/7 activity: 21.1%
  Cells with decreased mitochondrial membrane potential: 13.7%
MDA-MB-231 cells; 5.0 μM PC1422, 36 hr
  Cells with caspase 3/7 activity: 32.2%
  Cells with decreased mitochondrial membrane potential: 32.9%
MDA-MB-231 cells; [3]
  Cells with caspase 3/7 activity: 41.2%
  Cells with decreased mitochondrial membrane potential: 21.7%
MDA-MB-231 cells; 10.0 μM PC1422, 36 hr
  Cells with caspase 3/7 activity: 41.6%
  Cells with decreased mitochondrial membrane potential: 46.0%
MDA-MB-231 cells; 15.0 μM PC1422, 36 hr
  Cells with caspase 3/7 activity: 26.7%
  Cells with decreased mitochondrial membrane potential: 65.2%
MDA-MB-231 cells; 36 hours
  Concentration of greatest effect on apoptosis: 15 µM
  Induction of apoptosis at concentrations as low as: 2.5 µM
CRL-2522 cells; [4]
  Cells with caspase 3/7 activity: 3.1%
  Cells with decreased mitochondrial membrane potential: 3.4%
CRL-2522 cells; [5]
  Cells with caspase 3/7 activity: 15.3%
  Cells with decreased mitochondrial membrane potential: 5.1%
CRL-2522 cells; [6]
  Cells with caspase 3/7 activity: 12.8%
  Cells with decreased mitochondrial membrane potential: 19.2%
CRL-2522 cells; [7]
  Cells with caspase 3/7 activity: 7.3%
  Cells with decreased mitochondrial membrane potential: 26.2%
CRL-2522 cells; CRL-2522 cells, PC1422 15.0-2.5 μM, 36 hours
  Cells with Caspase 3/7 activity and decreased mitochondrial membrane potential vs untreated (in words): modest increase
CRL-2522 cells; fibroblast cell line CRL-2522, summary of the Examples
  Apoptosis in non-cancerous cell line (summary in words): no or little apoptosis
HT-29 cancer cells; 5.0 μM and 10 μM
  Caspase 3/7 activity compared to untreated cells / induction of apoptosis (in words, FIG. 5): increase in caspase 3/7 activity
MCF-7 cells
  Induction of apoptosis (in words, FIG. 16): do not induce apoptosis
[1]
  HD50: 43.8 µM
[2]
  Order of Apoptosis Potency: 4

## QS21 [reference compound]
[1]
  HD50: 7.5 µM

## CC1OC(OC(=O)C23CCC(C)(C)CC2C2=CCC4C5(C)CCC(OC6OC(C(=O)O)C(O)C(O)C6OC6OC(CO)C(O)C(O)C6O)C(C)(C=O)C5CCC4(C)C2(C)CC3O)C(OC2OC(C)C(OC3OCC(O)C(O)C3O)C(O)C2O)C(OC2OC(CO)C(O)C2O)C1O (centres unmarked) [PC1380]
PC-3 cells; 2.5 μM PC1380, 35 hr
  Cells with caspase 3/7 activity: 11.4%
  Cells with decreased mitochondrial membrane potential: 5.8%
PC-3 cells; 5.0 μM PC1380, 35 hr
  Cells with caspase 3/7 activity: 15.3%
  Cells with decreased mitochondrial membrane potential: 7.1%
PC-3 cells; 10.0 μM PC1380, 35 hr
  Cells with caspase 3/7 activity: 14.9%
  Cells with decreased mitochondrial membrane potential: 8.7%
PC-3 cells; 15.0 μM PC1380, 35 hr
  Cells with caspase 3/7 activity: 31.8%
  Cells with decreased mitochondrial membrane potential: 15.9%
PC-3 cells; PC1380 15.0-2.5 μM, 35 hours
  Cells with Caspase 3/7 activity and decreased mitochondrial membrane potential vs untreated (in words): small increase
MDA-MB-231 cells; 2.5 μM PC1380, 34 hr
  Cells with caspase 3/7 activity: 6.2%
  Cells with decreased mitochondrial membrane potential: 3.2%
MDA-MB-231 cells; 5.0 μM PC1380, 34 hr
  Cells with caspase 3/7 activity: 8.0%
  Cells with decreased mitochondrial membrane potential: 4.7%
MDA-MB-231 cells; 10.0 μM PC1380, 34 hr
  Cells with caspase 3/7 activity: 9.4%
  Cells with decreased mitochondrial membrane potential: 6.6%
MDA-MB-231 cells; 15.0 μM PC1380, 34 hr
  Cells with caspase 3/7 activity: 7.9%
  Cells with decreased mitochondrial membrane potential: 4.3%
MDA-MB-231 cells; PC1380 15.0-2.5 μM, 34 hours
  Apoptosis activity (in words): no significant apoptosis activity
CRL-2522 cells; [8]
  Cells with caspase 3/7 activity: 0.4%
  Cells with decreased mitochondrial membrane potential: 1.8%
CRL-2522 cells; [9]
  Cells with caspase 3/7 activity: 1.0%
  Cells with decreased mitochondrial membrane potential: 4.0%
CRL-2522 cells; [10]
  Cells with caspase 3/7 activity: 1.2%
  Cells with decreased mitochondrial membrane potential: 2.6%
CRL-2522 cells; [11]
  Cells with caspase 3/7 activity: 0.9%
  Cells with decreased mitochondrial membrane potential: 4.5%
CRL-2522 cells; CRL-2522 cells, PC1380 15.0-2.5 μM, 32 hours
  Apoptosis (in words): no significant apoptosis
HT-29 cancer cells; 5.0 μM, 10 μM and 15 μM
  Induction of apoptosis (in words, FIG. 6): does not induce apoptosis
